Molecules are shown by their SMILES.

A word on the IC50: it is the concentration that inhibits the measured activity by half.

The target of the first assay is T1, Pancreatic CCK (Rattus norvegicus, UniProt P30551).
T1 construct: from tissue; host or cells: pancreas (rat, inferred from the cited method)
T1 sequence (P30551 1-444): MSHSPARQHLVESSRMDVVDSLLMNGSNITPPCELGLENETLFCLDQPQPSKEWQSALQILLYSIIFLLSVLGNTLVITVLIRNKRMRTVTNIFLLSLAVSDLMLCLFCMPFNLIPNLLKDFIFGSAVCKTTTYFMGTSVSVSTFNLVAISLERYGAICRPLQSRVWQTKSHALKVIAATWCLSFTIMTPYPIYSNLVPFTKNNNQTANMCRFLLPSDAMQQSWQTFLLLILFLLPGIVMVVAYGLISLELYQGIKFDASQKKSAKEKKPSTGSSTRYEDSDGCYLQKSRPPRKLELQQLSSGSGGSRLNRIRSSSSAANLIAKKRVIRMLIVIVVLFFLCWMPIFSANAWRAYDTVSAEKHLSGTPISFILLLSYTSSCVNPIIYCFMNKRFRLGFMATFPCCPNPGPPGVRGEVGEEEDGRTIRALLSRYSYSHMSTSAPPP
In words: Pancreatic CCK inhibition (assay of European Patent Application No. 0,116,150). It counts as binding. The note with it: pancreas CCK inhibition, European Patent Application assay; leucine analogs. The source says: The following formula and tabulation further identify the above listed compounds. Pancreatic CCK inhibition data is also provided; the assay used is that disclosed in said European Patent Application No. 0,116,150.
The following table contains information Identifying other compounds of the present invention and pancrease CCK inhibition data (European Patent Application Assay).
For `O=C1NC(CC2(O)c3ccccc3N3C(=O)C(C4CCCCC4)NC32)c2nc3ccccc3c(=O)n2-c2ccccc21` (stereo not drawn) [Compound 068], the IC50 was found to be 0.6 µM. `CC(CC1NC2N(C1=O)c1ccccc1C2(O)CC1NC(=O)c2ccccc2-n2c1nc1ccccc1c2=O)C(F)(F)F` (stereo not drawn) [Compound 328] registered an IC50 of 1 µM. Still for that read-out and setting: with `O=C1NC(CC2(O)c3ccccc3N3C(=O)C(c4ccccc4)NC32)c2nc3ccccc3c(=O)n2-c2ccccc21` (stereo not drawn) [Compound 500] the figure was 20 µM; with `C=C(C)CC1NC2N(C1=O)c1ccccc1C2(O)CC1NC(=O)c2ccccc2-n2c1nc1ccccc1c2=O` (stereo not drawn) [Compound 538], 3.3 µM. Same read-out and setting: with `CCCC1NC2N(C1=O)c1ccccc1C2(O)CC1NC(=O)c2ccccc2-n2c1nc1ccccc1c2=O` (stereo not drawn) [Compound 539] the figure was 11.9 µM; with `C=CCC1NC2N(C1=O)c1ccccc1C2(O)CC1NC(=O)c2ccccc2-n2c1nc1ccccc1c2=O` (stereo not drawn) [Compound 540], 7.6 µM; with `CCC(C)C1NC2N(C1=O)c1ccccc1C2(O)CC1NC(=O)c2ccccc2-n2c1nc1ccccc1c2=O` (stereo not drawn) [Compound 654], 5.9 µM. The same measure, in the same setting: with `CSCCC1NC2N(C1=O)c1ccccc1C2(O)CC1NC(=O)c2ccccc2-n2c1nc1ccccc1c2=O` (stereo not drawn) [Compound 655] the figure was 4.1 µM; with `CCCCC1NC2N(C1=O)c1ccccc1C2(O)CC1NC(=O)c2ccccc2-n2c1nc1ccccc1c2=O` (stereo not drawn) [Compound 656], 2.5 µM; with `CCSCCC1NC2N(C1=O)c1ccccc1C2(O)CC1NC(=O)c2ccccc2-n2c1nc1ccccc1c2=O` (stereo not drawn) [Compound 721], 1.5 µM. Take `O=C1NC(CC2(O)c3ccccc3N3C(=O)C(C4CCCC4)NC32)c2nc3ccccc3c(=O)n2-c2ccccc21` (stereo not drawn) [Compound 931]: inhibition was half-maximal at 2.2 µM (IC50).

Staying with this assay, now noted: pancreatic CCK inhibition, assay of EP 0,116,150.
`O=C1NC(Cc2c[nH]c3ncccc23)c2nc3ccccc3c(=O)n2-c2ccccc21` (stereo not drawn) [Compound 841] gave an IC50 of 29.9 µM.

As for `CC(C)C[C@@H]1NC2N(C1=O)c1ccccc1C2(O)C[C@@H]1NC(=O)c2ccc(F)cc2-n2c1nc1ccccc1c2=O` (stereo partly drawn) [Compound 845], the midpoint of inhibition, the IC50, lay at 1.45 µM. With `O=C1c2ccccc2-n2c(nc3ccccc3c2=O)C2CC3(O)c4cc(F)ccc4NC3N12` (stereo not drawn) [Compound 856], the midpoint of inhibition, the IC50, lay at 30 µM. Same read-out and setting: with `O=C1c2cc(F)ccc2-n2c(nc3ccc(F)cc3c2=O)C2CC3(O)c4cc(F)ccc4NC3N12` (stereo not drawn) [Compound 857] the figure was 2.52 µM.

The values above are taken from patent publication US4696925A, “Cholecystokinin antagonist compounds” (Merck & Co., Inc., priority 1985, dated 1987).
